Laboratory results from patent publication US10851069B2, “Compositions of crystallized hydrophobic compounds and methods of making and using same” (Massachusetts Institute of Technology, priority 2016, dated 2020).

Assays:
[1] = tested on: non-human primates (cynomolgus macaques); experiment: Crystalline GW2580 alginate capsules (0.5 and 1.5 mm) implanted IP and SC in non-human primates, foreign body response; format: in vivo; conditions: for macrophage responses on retrieved capsules (FACS): all cases of remaining drug
Experimental: Lead candidates identified in these studies, like GW2580, were subsequently tested in a non-human primate (NHP) model in which capsules (0.5 and 1.5 mm) were implanted in both the intraperitoneal (IP) and subcutaneous (SC) spaces (FIGS. 12 and 13C). […] IP space (lavage) drug concentrations were traced by LCMS fort each capsule type following retrieval time points, and found to drop from only 2-3 ng/ml at 4 weeks post-implantation to below detectable limit (0.5 ng/ml) beyond. […] And while 0.5 mm drug-loaded capsules became clumped at 3 months, they were not extensively embedded into surrounding omental tissue until 6 months (FIGS. 12, 23B and 23C).
For non-human primate (NHP) procedures, buprenorphine (0.01-0.03 mg/kg) was administered as a pre-operative analgesic. NHPs were then sedated using an intramuscular (IM) injection of ketamine (10 mg/kg) with an addition of midazolam as dictated by DCM vet staff if needed for additional sedation. Animals were maintained on a circulating warm water blanket and covered with a towel during the procedure to maintain body temperature. Either 0.5 or 1.5 mm diameter (drug-loaded) SLG20 spheres were implanted by minimally invasive laparoscopic surgery, and injected into the dorsal (back) regions of 4 non-human primates (cynomolgus macaques) using 18 and 12 gauge custom-manufactured (Harvard Apparatus) sterile stainless steel needles, with slip tip syringes in order to prevent shearing of our biomaterial upon injection. Needles were inserted tangentially to the backs of the NHPs, and were slid (tunneled) approximately 1-2 cm away from the initial injection point, in order to try to separate the injection from that of the site of eventual material response. Spheres (0.5 and 1.5 mm diameter) were injected into 4 total spots on the flank of 4 of our non-human primates: two spots on the left flank and two on the right, for 0.5 mm and 1.5 mm diameter sphere implants, respectively.
For non-human primate intraperitoneal and subcutaneous retrievals, similar to when material was implanted, NHPs were once again given buprenorphine (0.01-0.03 mg/kg) as a pre-operative analgesic, and sedated using an IM injection of ketamine (10 mg/kg), with midazolam as dictated by DCM vet staff if needed for additional sedation. Animals were once again maintained on a circulating warm water blanket and covered with a towel during the procedure to maintain body temperature. 8 mm diameter biopsy punches were then used to sample the entire skin and subcutaneous space at 2 and later at 4 weeks post-implantation. Following biopsy punches, the retrieval site was closed with 3-0 nylon in a simple-interrupted pattern and VetBond (tissue glue). For IP retrievals, minimally invasive laparoscopic surgery was also used (similar to implant procedures). […]

[2] = tested on: rat Pdx1; experiment: qPCR of explanted capsules, rat islet function/viability marker; format: in vivo; conditions: explanted at approximately 430 (amorphous) or 460 (crystalline) days post-transplant
Text: Total RNA was isolated from fibrosed spheres (with adhered tissue and immune overgrowth, if present), liquid nitrogen snap-frozen immediately following excision, using TRIzol (Invitrogen, Carlsbad, Calif.) according to the manufacturer's instructions. In addition, to help ensure complete tissue disruption, we also employed strong mechanical disruption with a Polytron homogenizer. Thus, gene expression signatures shown throughout are proportional and representative of the entire cell population present on and/or around retrieved materials. […] Mouse (5′-[…]-3′ (SEQ. ID. No.:1); reverse: 5′-CGGGTTCCGCTGTGTAAG-3′ (SEQ. ID. No.:2)) and rat (5′-CTCTCGTGCCATGTGAACC-3′ (SEQ. ID. No.:3); reverse: 5′-[…]-3′ (SEQ. ID. No.:4)) Pdx1 primers were designed using Primer Express software (Applied Biosystems, Carlsbad, Calif., USA) and evaluated using LaserGene software (DNAStar, Madison, Wis., USA) to ensure species rat (encapsulated islet) or mouse (host)-specificity, and normalized to mouse (5′-[…]-3′ (SEQ. ID. No.:5); reverse: 5′-[…]-3′ (SEQ. ID. No.:6)) and rat (5′-[…]-3′ (SEQ. ID. No.:7); reverse: 5′-[…]-3′ (SEQ. ID. No.:8)) Beta-actin, respectively. […] Results were analyzed using the comparative CT (ΔΔCT) method as described by the manufacturer. […]

COc1ccc(COc2ccc(Cc3cnc(N)nc3N)cc2OC)cc1 [GW2580, 5-[[3-Methoxy-4-[(4-methoxyphenyl)methoxy]phenyl]methyl]-2,4-pyrimidinediamine]
sphere embedding and collagen deposition (H&E and Masson's Trichrome) ([1]; 0.5 and 1.5 mm drug-loaded capsules, excised implant-site tissue): lack of sphere embedding and collagen deposition | fibrosis development (phase contrast) ([1]; crystalline, 0.5 and 1.5 mm capsules, 2 and 4 weeks, IP and SC): prevented fibrosis development | macrophage responses on retrieved capsules (FACS) ([1]; crystalline, 0.5 and 1.5 mm capsules): significant inhibition of macrophage responses | macrophage responses on retrieved capsules (FACS) ([1]; crystalline, 0.5 and 1.5 mm capsules, listed as GW): reduced multiple orders of magnitude | Pdx1 expression, crystal versus amorphous capsules [2]: approximately 30 fold
